This note sets out measurements from US7674906B2, “Tetracyclic immunomodulatory compounds” (Active Biotech AB, priority 2002, dated 2010).

For this test, the target named is T1, CD80-CD 28 interaction (Homo sapiens, UniProt P33681).
T1 sequence (P33681 35-242 limits assumed): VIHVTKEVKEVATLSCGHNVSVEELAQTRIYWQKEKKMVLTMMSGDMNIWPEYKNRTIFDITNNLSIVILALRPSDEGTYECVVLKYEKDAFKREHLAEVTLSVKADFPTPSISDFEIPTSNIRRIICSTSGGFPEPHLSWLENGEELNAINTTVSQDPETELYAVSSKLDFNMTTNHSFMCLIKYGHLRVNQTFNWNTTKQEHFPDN
Description: cell free Homogenous Time Resolved Fluorescence (HTRF) assay, inhibition of the CD80-CD28 interaction. It counts as binding. As to conditions: CD28-mouse Fc fusion protein and CD80 mouse Fab fragment (C215) fusion protein, 4 hours at room temperature, concentration series 100 μM-1.7 nM. How it is done: The examples described above were tested in a cell free Homogenous Time Resolved Fluorescence (HTRF) assay to determine their activity as inhibitors of the CD80-CD 28 interaction.
In the assay, europium and allophycocyanin (APC) are associated with CD28 and CD80 indirectly (through anti-body linkers) to form a complex, which brings the europium and APC into close proximity to generate a signal. The complex comprises the following six proteins: fluorescent label 1, linker antibody 1, CD28 fusion protein, CD80 fusion protein, linker antibody 2, and fluorescent label 2. The table below describes these reagents in greater detail.
On formation of the complex, europium and APC are brought into proximity and a signal is generated.
Non-specific interaction was measured by substituting a mouse Fab fragment (C215) for the CD80 mouse Fab fragment fusion protein (1.9 μg/ml). The assay was carried out in black 384 well plates in a final volume of 30 μl. Assay buffer: 50 mM Tris-HCl, 150 mM NaCl pH7.8, containing 0.1% BSA (w/v) added just prior to use.
Compounds were added to the above reagents in a concentration series ranging between 100 μM-1.7 nM. The reaction was incubated for 4 hours at room temperature. Dual measurements were made using a Wallac Victor 1420 Multilabel Counter. First measurement: excitation 340 nm, emission 665 nm, delay 50 μs, window time 200 μs. second measurement: excitation 340 nm, emission 615 nm, delay 50 μs, window time 200 μs. Counts were automatically corrected for fluorescence crossover, quenching and background.
Background: TR-FRET usually uses a lanthanide donor and a delayed reading to cut background.
In turn, `O=C(O)c1ccc(-n2nc3c4ccccc4[nH]c(-c4cccc([N+](=O)[O-])c4)c-3c2=O)cc1` [Example 5, 4-[4-(3-Nitro-phenyl)-3-oxo-3,5-dihydro-pyrazolo[4,3-c]-quinolin-2-yl]-benzoic acid] displayed an IC50 of 8.6 µM. For `COc1ccc(-c2[nH]c3ccccc3c3nn(-c4cccc(C(=O)O)c4)c(=O)c2-3)cc1` [Example 9] the value was 4.6 µM.

For `COc1ccc(-c2[nH]c3ccccc3c3nn(-c4ccc(C(=O)O)cc4)c(=O)c2-3)cc1` [Example 7, 4-[4-(4-Methoxyphenyl)-3-oxo-3,5-dihydropyrazolo[4,3-c]-quinolin-2-yl]benzoic acid], the IC50 stood at 3.4 µM.

In general, IC50 refers to the point on the concentration scale where inhibition reaches its midpoint. Read a high IC50 as lower potency.
